Values of other authors, collected in patent US20240299307A1, “Extended-release compositions comprising atomoxetine” (Tulex Pharmaceuticals, Inc., priority 2021, published 2024).
Read-outs that look alike come from different tables or passages of the source.

Question: For `CNCC[C@@H](Oc1ccccc1C)c1ccccc1` [ATO], which solubility (pH of about 1) is on record?
Answer: about 18 mg/mL

Question: What about the solubility (pH of about 4.5 (highest solubility)) of the same compound?
Answer: about 52 mg/mL

Question: What about the “decrease of solubility relative to pH about 4.5” value (pH of greater than about 4.5) of the same compound?
Answer: approximately 10 fold

Question: What about the “decrease of solubility relative to pH about 4.5” value (pH of less than 4.5) of the same compound?
Answer: approximately 3 fold
